Results from PubChem BioAssay (NCI).
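A five-concentration, 48-hour dose response in 96-well plates underlies each endpoint, interpolated linearly between surrounding concentrations. TGI denotes the concentration required for complete inhibition of growth.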

Columns and labels:
P388/ADR leukemia = assay: NCI tumour cell line growth inhibition, 48 h
RXF-631 renal = assay: NCI tumour cell line growth inhibition, 48 h

Compound	TGI (P388/ADR leukemia) [µM]	TGI (RXF-631 renal) [µM]
Cc1[nH]c(=O)[nH]c(=O)c1/C=C/C(=O)NC(CO)CC(C)C (centres undefined)	> 149	
CCC1CN2CCc3cc(OC)c(OC)cc3C2CC1CC1c2cc(OC)c(OC)cc2CCN1C(=O)C(N)Cc1ccccc1 (centres undefined)		8.11
CC(C)=CCc1c(O)cc(O)c2c1OC(c1ccc(O)cc1)C(O)C2=O (centres undefined)		97.9
NCC(Cl)C(O)c1cnc(N)[nH]1 (centres undefined)	10.1	
